This is an account of results in US4230705A, “6-Phenyl-1,2,4-triazolo[4,3-b]pyridazines and their uses in treating anxiety” (American Cyanamid Company, priority 1976, dated 1980).

Assay [1] concerns Clonic Seizures Caused By Pentylenetetrazole. Briefly: Protection against clonic seizures caused by pentylenetetrazole in rats. In kind it is in vivo. Conditions: Rattus norvegicus; oral, 2% starch vehicle; pentylenetetrazole 21 to 23 mg./kg. intravenously at estimated time of peak effect; protection of 50% of rats; read-out: Medium Effective Oral Dose mg./kg. ED50 (converted). As for the experimental part:
The anti-anxiety properties of the novel compounds of the present invention have been established in a test which indicates anxiolytic activity by the measure of protection from convulsions resulting from the administration of pentylenetetrazole. Graded dose levels of the compounds of this invention were administered orally, in a 2% starch vehicle, to groups of at least 5 rats. At the estimated time of peak effect, the rats were treated intravenously with pentylenetetrazole at a dose of 21 to 23 mg./kg. of body weight. This dose is estimated to cause clonic seizures in 99% of unprotected rats. The effective dose (ED50) of the test compound for protection of 50% of the animals is calculated by the method of D. H. Finney in "Statistical Methods in Biological Assay", Second Edition, Hafner Publishing Co., New York, 1964, pp. 456-457. Representative results are given in Table I which follows in comparison with chlordiazepoxide or meprobamate, which were tested in exactly the same manner. It has been reported [R. T. Hill and D. H. Tedeschi, "Animal Testing and Screening Procedures in Evaluating Psychotropic Drugs" in "An Introduction to Psychopharmacology", Eds. R. R. Rech and K. E. Moore, Raven Press, New York, pp. 237-288 (1971)] that there is a high degree of correlation between antagonism of pentylenetetrazole seizures in rats and anti-anxiety effects in higher warm-blooded animals.

In assay [2] the test system is conflict situation in rats. Briefly: Non-conditioned passive avoidance (conflict) procedure in rats. In kind it is in vivo, Sprague-Dawley rats. As to conditions: Rattus norvegicus; oral, 2% starch vehicle; 9 or more shocks in 5 minute test period; rats deprived of water 48 hours and food 24 hours; read-out: Median Effective Dose (ED50 mg./kg.). As for the experimental part:
Another test which has been used to assess anti-anxiety effects is a non-conditioned passive avoidance procedure described by J. R. Vogel, B. Beer and D. E. Clody, "A Simple and Reliable Conflict Procedure for Testing Anti-Anxiety Agents", Psychopharmacologia, Vol. 21, pp. 1-7 (1971). A conflict situation is induced in rats by a modification of this method. To groups of six naive Sprague-Dawley rats (200-220 grams), previously deprived of water for forty-eight hours and food for 24 hours, are administered graded oral doses of test compound suspended in 2% starch vehicle also containing 2 drops of polyethylene glycol and polysorbate 80, or vehicle alone (controls). At the time of peak effect each rat is placed in a plexiglass box fitted with a drinkometer circuit connected between the stainless steel grid floor and a stainless steel drinking tube inserted in a hole in one of the walls of the box. […] The number of shocks received by the rat during a 5 minute test period is recorded. […]

The structures appear in SMILES notation.

Take `Cc1nnc2ccc(-c3ccccc3)nn12` [3-methyl-6-phenyl-1,2,4-triazolo[4,3-b]pyridazine]: the ED50 was 3 mg/kg in assay [1] and 100 mg/kg in assay [2].

For the compound `c1ccc(-c2ccc3nncn3n2)cc1` [6-phenyl-1,2,4-triazolo[4,3-b]pyridazine], the ED50 in assay [1] was 9.5 mg/kg.

With `CNC1=Nc2ccc(Cl)cc2C(c2ccccc2)=[N+]([O-])C1` [Chlordiazepoxide], the ED50 in assay [1] was 2.5 mg/kg; in assay [2] it was 9.6 mg/kg.

`CCCC(C)(COC(N)=O)COC(N)=O` [Meprobamate]: the ED50 in assay [1] is 22 mg/kg.
